Consider 32 molecules from patent US10294243B2, “Bicyclic compounds as pesticides” (BAYER CROPSCIENCE AKTIENGESELLSCHAFT, priority 2014, dated 2019).

Where two headings read alike, the source gives them in different places.

For data set [1], the system named is Myzus persicae. The experiment in a line: Myzus persicae - spray test (Chinese cabbage leaf discs). As to conditions: after 6 days; for pest or weed control at 500 g/ha: Myzus persicae, foliar, 144 h, read-out: efficacy (aphids killed). In kind it is in vivo. How it is done:
Myzus persicae—Spray Test
Solvent: 78 parts by weight of acetone • • 1.5 parts by weight of dimethylformamide
(§1) Emulsifier: alkylaryl polyglycol ether
To produce further test concentrations, the preparation is diluted with emulsifier-containing water.
After 6 days, the efficacy in % is determined 100% means that all the aphids have been killed; 0% means that none of the aphids have been killed.

Data set [2] is described as follows: log P by HPLC on reversed-phase C18 columns (OECD Guideline 117); method [a] acidic pH 2.7, method [b] neutral pH 7.8. In kind it is physicochemical. Particulars: for chromatographic logP: reversed-phase C18 HPLC column.
Data set [3] has as its system Phaedon cochleariae. Briefly: Phaedon cochleariae - spray test. Type of data set: in vivo. Particulars: application rate 500 g/ha, Chinese cabbage leaf discs, after 7 days.
Description: Phaedon cochleariae—Spray Test
as §1

Where [4] appears, read: HPLC reversed-phase C18, method [a] acidic pH 2.7, read-out: logP[a].
The mark [5] stands for this setting: HPLC reversed-phase C18, method [b] neutral pH 7.8, read-out: logP[b].
Setting [6] is: HPLC reversed-phase C18, method [a] acidic pH 2.7.
The mark [7] stands for this setting: HPLC reversed-phase C18, method [b] neutral pH 7.8.

Take `O=c1c2sc(-c3cccnc3)nc2ncn1-c1ccc(SC(F)(F)F)cc1` [Compound 62, 2-(Pyridin-3-yl)-6-{4-[(trifluoromethyl)sulphanyl]phenyl}[1,3]thiazolo[4,5-d]pyrimidin-7(6H)-one]: in data set [1] (application rate 500 g/ha), the pest or weed control at 500 g/ha worked out at 90%. The chromatographic logP in data set [2] (setting [4]) worked out at 2.71; in data set [2] (setting [5]), 2.69. Further, the “efficacy (beetle larvae killed)” value in data set [3] stood at 100%.
As to `Cc1cc(F)c(-n2cnc3nc(-c4cncc(F)c4)sc3c2=O)cc1[S+]([O-])CC(F)(F)F` (centres unmarked) [Compound 74, 6-{2-Fluoro-4-methyl-5-[(2,2,2-trifluoroethyl)sulphinyl]phenyl}-2-(5-fluoropyridin-3-yl)[1,3]thiazolo[4,5-d]pyrimidin-7(6H)-one], the pest or weed control at 500 g/ha in data set [1] (application rate 500 g/ha) is 90%. The chromatographic logP in data set [2] (setting [4]) was found to be 2.34; in data set [2] (setting [5]), 2.26.
Take `Cc1cc(F)c(-n2nnc3nc(-c4cccnc4)sc3c2=O)cc1SCC(F)(F)F` [Compound 58, 3-{2-Fluoro-4-methyl-5-[(2,2,2-trifluoroethyl)sulphanyl]phenyl}-6-(pyridin-3-yl)[1,3]thiazolo[4,5-d][1,2,3]triazin-4(3H)-one]: the pest or weed control at 500 g/ha in data set [1] (application rate 500 g/ha) was 90%. Besides, the chromatographic logP in data set [2] (setting [4]) is 3.45; in data set [2] (setting [5]), 3.32.
For `Cc1cc(F)c(-n2cnc3nc(-c4cccnc4)sc3c2=O)cc1[S+]([O-])CC(=O)N(C)C` (centres unmarked) [Compound 55, 2-({4-Fluoro-2-methyl-5-[7-oxo-2-(pyridin-3-yl)[1,3]thiazolo[4,5-d]pyrimidin-6(7H)-yl]phenyl}sulphinyl)-N,N-dimethylacetamide], the pest or weed control at 500 g/ha in data set [1] (application rate 500 g/ha) is 90%. Besides, the chromatographic logP in data set [2] (setting [4]) and in data set [2] (setting [5]) was 1.38 each time.
As to `O=c1c2sc(-c3cccnc3)nc2ncn1CC1CC1` [Compound 39, 6-(Cyclopropylmethyl)-2-(pyridin-3-yl)[1,3]thiazolo[4,5-d]pyrimidin-7(6H)-one], the pest or weed control at 500 g/ha in data set [1] (application rate 500 g/ha) came to 100%. For the same molecule, the chromatographic logP in data set [2] (setting [4]) turned out to be 1.53; in data set [2] (setting [5]), 1.52.
On to `CCSc1ccc(-n2cnc3nc(-c4cccnc4)sc3c2=O)cc1` [Compound 60], for which, in data set [1] (application rate 500 g/ha), the “efficacy (aphids killed)” value came out at 100%. Moreover, in data set [2] (setting [6]), the “logP[a]” value turned out to be 2.41. Moreover, in data set [2] (setting [7]), the “logP[b]” value stood at 2.45.
For `O=c1c2sc(-c3cccnc3)nc2ncn1-c1ccc(F)c(SC(F)(F)F)c1` [Compound 17], the “efficacy (aphids killed)” value in data set [1] (application rate 500 g/ha) amounted to 90%. For the same molecule, the “logP[a]” value in data set [2] (setting [6]) came to 2.70. Further, the “logP[b]” value in data set [2] (setting [7]) amounted to 2.66.
For `CC[S+]([O-])c1ccc(-n2cnc3nc(-c4cccnc4)sc3c2=O)cc1` (centres unmarked) [Compound 61], in data set [1] (application rate 500 g/ha), the “efficacy (aphids killed)” value came out at 100%. For the same molecule, the “logP[a]” value in data set [2] (setting [6]) turned out to be 1.10. For the same molecule, the “logP[b]” value in data set [2] (setting [7]) came to 1.22.
Consider `O=c1c2sc(-c3cccnc3)nc2ncn1Cc1ccccn1` [Compound 34, 2-(Pyridin-3-yl)-6-(pyridin-2-ylmethyl)[1,3]thiazolo[4,5-d]pyrimidin-7(6H)-one], for which the pest or weed control at 500 g/ha in data set [1] (application rate 500 g/ha) turned out to be 100%. In addition, the chromatographic logP in data set [2] (setting [4]) is 1.09.
Turning to `O=c1c2sc(-c3cccnc3)nc2ncn1Cc1ccncc1` [Compound 36], the “efficacy (aphids killed)” value in data set [1] (application rate 500 g/ha) amounted to 90%. Moreover, the “logP[a]” value in data set [2] (setting [6]) stood at 0.55.
Turning to `CCSc1ccccc1-n1cnc2nc(-c3cccnc3)sc2c1=O` [Compound 66], the “efficacy (aphids killed)” value in data set [1] (application rate 500 g/ha) is listed as 100%. The “logP[a]” value in data set [2] (setting [6]) is given as 2.20. In addition, in data set [2] (setting [7]), the “logP[b]” value is given as 2.21.
In the case of `Cc1cc(C)c(-n2cnc3nc(-c4cncnc4)sc3c2=O)cc1SCC(F)(F)F` [Compound 76, 6-{2,4-Dimethyl-5-[(2,2,2-trifluoroethyl)sulphanyl]phenyl}-2-(pyrimidin-5-yl)[1,3]thiazolo[4,5-d]pyrimidin-7(6H)-one], the pest or weed control at 500 g/ha in data set [1] (application rate 500 g/ha) amounted to 90%. Besides, the chromatographic logP in data set [2] (setting [4]) is 2.88; in data set [2] (setting [5]) it was 2.77.
With `O=c1c2sc(-c3cccnc3)nc2ncn1-c1ccc(F)c([S+]([O-])C(F)(F)F)c1` (centres unmarked) [Compound 18], the “efficacy (aphids killed)” value in data set [1] (application rate 500 g/ha) is recorded as 90%. In data set [2] (setting [6]), the “logP[a]” value worked out at 2.01. In addition, the “logP[b]” value in data set [2] (setting [7]) is recorded as 1.95.
For the molecule `CC(C)Sc1cccc(-n2cnc3nc(-c4cccnc4)sc3c2=O)c1` [Compound 24], in data set [1] (application rate 500 g/ha), the “efficacy (aphids killed)” value amounted to 90%. Further, the “logP[a]” value in data set [2] (setting [6]) turned out to be 2.76. In addition, the “logP[b]” value in data set [2] (setting [7]) came to 2.70.
Regarding `Cc1cc(F)c(-n2cnc3nc(-c4cccnc4)sc3c2=O)cc1SCC(F)(F)F` [Compound 21, 6-{2-Fluoro-4-methyl-5-[(2,2,2-trifluoroethyl)sulphanyl]phenyl}-2-(pyridin-3-yl)[1,3]thiazolo[4,5-d]pyrimidin-7(6H)-one], in data set [1] (application rate 500 g/ha), the pest or weed control at 500 g/ha came to 90%. Besides, the chromatographic logP worked out at 2.95 in data set [2] (setting [4]) and 2.91 in data set [2] (setting [5]).
Turning to `Cc1cc(F)c(-n2nnc3nc(-c4cccnc4)sc3c2=O)cc1[S+]([O-])CC(F)(F)F` (centres unmarked) [Compound 59, 3-{2-Fluoro-4-methyl-5-[(2,2,2-trifluoroethyl)sulphinyl]phenyl}-6-(pyridin-3-yl)[1,3]thiazolo[4,5-d][1,2,3]triazin-4(3H)-one], the pest or weed control at 500 g/ha in data set [1] (application rate 500 g/ha) turned out to be 90%. Also, the chromatographic logP in data set [2] (setting [4]) came out at 2.4; in data set [2] (setting [5]), 2.35.
Take `Cc1cc(SC(F)(F)F)ccc1-n1cnc2nc(-c3cccnc3)sc2c1=O` [Compound 64]: in data set [1] (application rate 500 g/ha), the “efficacy (aphids killed)” value worked out at 100%. Moreover, the “logP[a]” value in data set [2] (setting [6]) is on record as 2.91. Moreover, in data set [2] (setting [7]), the “logP[b]” value came to 2.89.
On to `O=c1c2sc(-c3cccnc3)nc2ncn1CC(F)F` [Compound 4], for which the “efficacy (aphids killed)” value in data set [1] (application rate 500 g/ha) was 100%. In data set [2] (setting [6]), the “logP[a]” value was determined as 1.19.
As for `O=c1c2sc(-c3cccnc3)nc2ncn1-c1cc(SCC(F)(F)F)c(Cl)cc1Cl` [Compound 51], the “efficacy (aphids killed)” value in data set [1] (application rate 500 g/ha) is reported as 100%. In addition, in data set [2] (setting [6]), the “logP[a]” value came to 3.25. The “logP[b]” value in data set [2] (setting [7]) was determined as 3.17.
The like results for `O=c1c2sc(-c3cccnc3)nc2ncn1-c1ccc(Cl)cc1` [Compound 43] were, in that order, 100%, 2.05 and 2.06.
For `O=c1c2sc(-c3cccnc3)nc2ncn1C1CC1` [Compound 2], in data set [1] (application rate 500 g/ha), the “efficacy (aphids killed)” value was 100%. For the same molecule, the “logP[b]” value in data set [2] (setting [7]) was 1.05.
With `Cc1cc(F)c(-n2cnc3nc(-c4cccnc4)sc3c2=O)cc1SCC(=O)N(C)C` [Compound 54, 2-({4-Fluoro-2-methyl-5-[7-oxo-2-(pyridin-3-yl)[1,3]thiazolo[4,5-d]pyrimidin-6(7H)-yl]phenyl}sulphanyl)-N,N-dimethylacetamide], in data set [1] (application rate 500 g/ha), the pest or weed control at 500 g/ha is 100%. Besides, the results for the chromatographic logP in data set [2] (setting [4]) and in data set [2] (setting [5]) were 1.9 and 1.91, respectively.
Consider `O=c1c2sc(-c3cccnc3)nc2ncn1-c1ccccc1F` [Compound 40], for which, in data set [1] (application rate 500 g/ha), the “efficacy (aphids killed)” value stood at 100%. In addition, the “logP[a]” value in data set [2] (setting [6]) amounted to 1.70. The “logP[b]” value in data set [2] (setting [7]) is given as 1.69.
`O=c1c2sc(-c3cccnc3)nc2ncn1-c1cc([S+]([O-])CC2CC2)ccc1F` (centres unmarked) [Compound 45]: the “efficacy (aphids killed)” value in data set [1] (application rate 500 g/ha) is 100%. In data set [2] (setting [6]), the “logP[a]” value is listed as 1.63. Besides, the “logP[b]” value in data set [2] (setting [7]) was 1.66.
Turning to `C[S+]([O-])c1cccc(-n2cnc3nc(-c4cccnc4)sc3c2=O)c1` (centres unmarked) [Compound 14], the “efficacy (aphids killed)” value in data set [1] (application rate 500 g/ha) is reported as 90%. In addition, the “logP[a]” value in data set [2] (setting [6]) turned out to be 1.04. In data set [2] (setting [7]), the “logP[b]” value worked out at 1.09.
`CCSc1cccc(-n2cnc3nc(-c4cccnc4)sc3c2=O)c1` [Compound 19]: the “efficacy (aphids killed)” value in data set [1] (application rate 100 g/ha) stood at 90%. Further, in data set [2] (setting [6]), the “logP[a]” value is 2.39. Also, the “logP[b]” value in data set [2] (setting [7]) is reported as 2.43.
`Cc1ccc(-n2cnc3nc(-c4cccnc4)sc3c2=O)cc1[S+](C)[O-]` (centres unmarked) [Compound 16]: in data set [1] (application rate 500 g/ha), the “efficacy (aphids killed)” value stood at 90%. Also, the “logP[a]” value in data set [2] (setting [6]) turned out to be 1.25. Besides, the “logP[b]” value in data set [2] (setting [7]) is reported as 1.26.
In the case of `O=c1c2sc(-c3cccnc3)nc2ncn1-c1cccc(C(F)(F)F)c1` [Compound 9], the “efficacy (aphids killed)” value in data set [1] (application rate 500 g/ha) was determined as 100%. The “logP[a]” value in data set [2] (setting [6]) worked out at 2.26. Moreover, the “logP[b]” value in data set [2] (setting [7]) is listed as 2.23.
For `CSc1cccc(-n2cnc3nc(-c4cccnc4)sc3c2=O)c1` [Compound 13], the “efficacy (aphids killed)” value in data set [1] (application rate 500 g/ha) is reported as 90%. The “logP[a]” value in data set [2] (setting [6]) was determined as 2.09. For the same molecule, in data set [2] (setting [7]), the “logP[b]” value was 2.08.
Regarding `Cc1cc(C)c([S+]([O-])CC(F)(F)F)cc1-n1cnc2nc(-c3cccnc3)sc2c1=O` (centres unmarked) [Compound 50, 6-{2,4-Dimethyl-5-[(2,2,2-trifluoroethyl)sulphinyl]phenyl}-2-(pyridin-3-yl)[1,3]thiazolo[4,5-d]pyrimidin-7(6H)-one], the pest or weed control at 500 g/ha in data set [1] (application rate 500 g/ha) amounted to 100%. Besides, the chromatographic logP in data set [2] (setting [4]) worked out at 2.06; in data set [2] (setting [5]), 2.01.
In the case of `Cc1cc(C)c(-n2cnc3nc(-c4cccnc4)sc3c2=O)cc1SCC(F)(F)F` [Compound 49, 6-{2,4-Dimethyl-5-[(2,2,2-trifluoroethyl)sulphanyl]phenyl}-2-(pyridin-3-yl)[1,3]thiazolo[4,5-d]pyrimidin-7(6H)-one], the pest or weed control at 500 g/ha in data set [1] (application rate 500 g/ha) was determined as 100%. For the same molecule, the chromatographic logP in data set [2] (setting [4]) came out at 3.04; in data set [2] (setting [5]) it was 2.98.
Take `O=c1c2sc(-c3cccnc3)nc2ncn1Cc1cccnc1` [Compound 35]: in data set [1] (application rate 500 g/ha), the “efficacy (aphids killed)” value is 100%. For the same molecule, the “logP[b]” value in data set [2] (setting [7]) is recorded as 0.72.
